Source: paper PMC3531619 (Angewandte Chemie (International Ed. in English), 2012)
Where no end group is shown, it is not given here. [ ]: non-standard residue; d: D form. Bpa = N[C@@H](Cc1ccc(C(=O)c2ccccc2)cc1)C(=O)O

What was measured:
[1] = tested on: PP2A; assay: Streptavidin pull-down of PP2A with biotinylated peptides from cell lysates; format: binding, human; details: U2OS cell lysates, streptavidin beads, immunoblot
[2] = tested on: PP1; assay: Streptavidin pull-down of PP1 with biotinylated peptides from cell lysates; format: binding, human; details: HEK293 and U2OS cell lysates, streptavidin-coated Sepharose beads, immunoblot
[3] = tested on: U2OS cells; assay: Cell viability assay; format: cell-based, human; details: conditions of the in-cell experiments

Substance: RRKRPKRKRKNARATAAEAAEII [PDP2m]
- Co-precipitation of PP2A in pull-down [1]: co-precipitated neither PP1 nor PP2A
- Co-sedimentation of PP1 in pull-down [2]: co-precipitated neither PP1 nor PP2A

Substance: RRKRPKRKRKNARATA[Bpa]EAAEII [PDP3m]
- Cytotoxicity under the experimental conditions [3]: neither PDP3 nor PDP3m showed any cytotoxicity
